Source: patent US20240024494A1, “SMALL-MOLECULE CONJUGATE AND USE THEREOF” (SHANGHAI MEWSGEN BIOTECHNOLOGY CO., LTD, priority 2020, published 2024)
Like-named read-outs stand apart in the source and are kept apart here.

Tests used:
[1] = tested on: tumor cell strains (colon cancer, pancreatic cancer, esophageal squamous carcinoma, gastric cancer, glioma); experiment: Summary of in-vitro proliferation inhibition on tumor cell strains (Examples 19-21); format: cell-based, human
Method: (§1) A part of the compounds prepared in the examples of the present disclosure were subjected to a tumor cell proliferation inhibition test by using a CCK-8 method. A cell line HCT116 (human colon carcinoma cells) and SW1990 (human pancreatic carcinoma cells) were purchased from Shanghai Meixuan Technology Co., Ltd. Samples (a part of the compounds prepared in the examples) were dissolved in DMSO (Merck), prepared into a concentration of 10 mM, and finally triply diluted in DMEM or McCoy's 5A 1640 medium to 8 concentration gradients. A cell culture solution was collected when a cell culture met a test requirement, 10 μL of the cell culture solution was uniformly coated on a cell counting plate, cells were counted for 3 times under a microscope, and a cell density was calculated by taking an average value; and a 96-well plate (Corning, #3599) was taken, 200 μL of the cell culture solution was added into each well for cell inoculation at a cell concentration of 6×10^3 cells per well, and the inoculated 96-well plate was incubated in a cell incubator containing 5% CO2 at 37° C. for 24 h. An old culture medium was removed by suction, 200 μL of the triply diluted sample DMEM or McCoy's 5A 1640 medium at an initial concentration of 10 μmol/L was added to each well, the DMSO content was controlled to be 1%, three duplicate wells were set, PBS was used as a blank control, and the plate was incubated in the incubator for 72 h. The original DMEM or McCoy's 5A 1640 medium in the 96-well plate and a PBS buffer in a final row were sucked out, a prepared CCK-8 solution (90% DMEM or McCoy's 5A 1640 medium+10% CCK-8) was added, the mixture was incubated in an incubator, and an absorbance was read by using a Biotek microplate reader. Cell growth inhibition rate IC %=(blank control well OD value−administration well OD value)/blank control well OD value×100%.
In-vitro activity test: 100 μL of a cell suspension at a concentration of 4-5×10^4/mL was added to each well of a 96-well plate, and placed in a 5% CO2 incubator at 37° C. After 24 h, a sample solution was added at 10 μL/well, double duplicate wells were set, and a reaction was performed at 37° C. with 5% CO2 for 72 h. 20 μL of 5 mg/ml of an MTT solution was added into each well and reacted for 4 h, a dissolving solution was added at 100 μL/well, the mixture was placed in an incubator, and after dissolution, an OD value at 570 nm was measured with a full-wavelength multifunctional microplate reader. An inhibition rate (IR) and a median inhibitory concentration (IC50) were calculated by using an Excel software.
A part of the compounds prepared in the examples of the present disclosure were subjected to a tumor cell proliferation inhibition test by using a CCK-8 method. Cell lines HCT116 (human colon cancer cells), MGC803 (human gastric cancer cells), and MIA PACA-2 (human pancreatic cancer cells) were purchased from Shanghai Meixuan Technology Co., Ltd. Samples (a part of the compounds prepared in the examples) were dissolved in DMSO (Merck), prepared into a concentration of 10 mM, and finally triply diluted in DMEM or McCoy's 5A 1640 medium to 8 concentration gradients. A cell culture solution was collected when a cell culture met a test requirement, 10 μL of the cell culture solution was uniformly coated on a cell counting plate, cells were counted for 3 times under a microscope, and a cell density was calculated by taking an average value; and a 96-well plate (Corning, #3599) was taken, 200 μL of the cell culture solution was added into each well for cell inoculation at a cell concentration of 6×10^3 cells per well, and the inoculated 96-well plate was incubated in a cell incubator containing 5% CO2 at 37° C. for 24 h. […]

[2] = tested on: HCT116 (human colon cancer cells); experiment: Tumor cell proliferation inhibition test, CCK-8 method (Example 21); format: cell-based
Method: as §1, with “method. Cell lines” for “method. A cell line”, “colon cancer cells), MGC803 (human gastric cancer cells),” for “colon carcinoma cells)”, “and MIA PACA-2” for “and SW1990”, “pancreatic cancer” for “pancreatic carcinoma”

[3] = tested on: MGC803 (human gastric cancer cells); experiment: as above; format: cell-based
Method: as §1, with “method. Cell lines” for “method. A cell line”, “colon cancer cells), MGC803 (human gastric cancer cells),” for “colon carcinoma cells)”, “and MIA PACA-2” for “and SW1990”, “pancreatic cancer” for “pancreatic carcinoma”

[4] = tested on: MIA PACA-2 (human pancreatic cancer cells); experiment: as above; format: cell-based
Method: as §1, with “method. Cell lines” for “method. A cell line”, “colon cancer cells), MGC803 (human gastric cancer cells),” for “colon carcinoma cells)”, “and MIA PACA-2” for “and SW1990”, “pancreatic cancer” for “pancreatic carcinoma”

[5] = CCK-8, 72 h, Table 3, read-out: IC50 HCT116
[6] = CCK-8, 72 h, Table 3, read-out: IC50 MGC803
[7] = CCK-8, 72 h, Table 3, read-out: IC50 MIA PACA-2

Compound | Proliferation inhibition activities IC50 on most tumor cell strains (in words) [1] | IC50 [2, 5] | IC50 [3, 6] | IC50 [4, 7] | IC50 ([2]; 72 h) | IC50 ([3]; 72 h) | IC50 ([4]; 72 h)
COc1cc(C(=O)NCCOCCOCCOCCC(=O)N[C@H](C(=O)N[C@@H](CCCNC(N)=O)C(=O)Nc2ccc(COC(=O)N3CCN(C(=O)O[C@H]4CC[C@@]5(C)[C@H](CC[C@@H]6[C@@H]5[C@H](O)C(=O)[C@]5(C)C(c7ccc(=O)oc7)CC[C@]65O)C4)CC3)cc2)C(C)C)ccc1NC(=O)[C@@H]1N[C@@H](CC(C)(C)C)[C@](C#N)(c2ccc(Cl)cc2F)[C@H]1c1cccc(Cl)c1F (some centres unmarked) [Compound I-2] | between several to hundreds of nanomoles | 26 nM | 54 nM | 212 nM | – | – | –
COc1cc(C(=O)NCCOCCOCCOCCC(=O)N[C@H](C(=O)N[C@@H](CCCNC(N)=O)C(=O)Nc2ccc(COC(=O)N3CCC(NC(=O)O[C@H]4CC[C@]5(C)C6CC[C@]7(C)[C@@H](c8ccc(=O)oc8)CC[C@]7(O)C6CC[C@@H]5C4)CC3)cc2)C(C)C)ccc1NC(=O)[C@@H]1N[C@@H](CC(C)(C)C)[C@](C#N)(c2ccc(Cl)cc2F)[C@H]1c1cccc(Cl)c1F (some centres unmarked) [Compound I-5] | – | 236 nM | 116 nM | 442 nM | – | – | –
COc1cc(C(=O)NCCOCCOCCOCCOCCOCCOCCC(=O)N[C@@H](C(=O)N[C@@H](CCCNC(N)=O)C(=O)Nc2ccc(COC(=O)N3CCC(NC(=O)O[C@H]4CC[C@]5(C)C6CC[C@]7(C)C(c8ccc(=O)oc8)CC[C@]7(O)C6CC[C@@H]5C4)CC3)cc2)C(C)C)ccc1NC(=O)[C@@H]1N[C@@H](CC(C)(C)C)[C@](C#N)(c2ccc(Cl)cc2F)[C@H]1c1cccc(Cl)c1F (some centres unmarked) [Compound I-7] | – | 1290 nM | 292 nM | 3530 nM | – | – | –
COc1cc(C(=O)NCCOCCOCCOCCOCCOCCOCCC(=O)N[C@@H](C(=O)N[C@@H](CCCNC(N)=O)C(=O)Nc2ccc(COC(=O)N3CCN(C(=O)O[C@H]4CC[C@@]5(C)[C@H](CC[C@@H]6[C@@H]5[C@H](O)C(=O)[C@]5(C)C(c7ccc(=O)oc7)CC[C@]65O)C4)CC3)cc2)C(C)C)ccc1NC(=O)[C@@H]1N[C@@H](CC(C)(C)C)[C@](C#N)(c2ccc(Cl)cc2F)[C@H]1c1cccc(Cl)c1F (some centres unmarked) [Compound I-8] | between several to hundreds of nanomoles | 12 nM | 12 nM | 87 nM | – | – | –
COc1cc(C(=O)NCCOCCOCCOCCOCCC(=O)N[C@H](C(=O)N[C@@H](C)C(=O)Nc2ccc(COC(=O)N3CCN(C(=O)O[C@H]4CC[C@@]5(C)[C@H](CC[C@@H]6[C@@H]5[C@H](O)C(=O)[C@]5(C)[C@@H](c7ccc(=O)oc7)CC[C@]65O)C4)CC3)cc2)C(C)C)ccc1NC(=O)[C@@H]1N[C@@H](CC(C)(C)C)[C@](C#N)(c2ccc(Cl)cc2F)[C@H]1c1cccc(Cl)c1F [Compound I-10] | – | 395 nM | 307 nM | 443 nM | – | – | –
COc1cc(C(=O)NCCOCCOCCOCCOCCC(=O)N[C@H](C(=O)N[C@@H](C)C(=O)Nc2ccc(COC(=O)N3CCC(NC(=O)O[C@H]4CC[C@]5(C)C6CC[C@]7(C)[C@@H](c8ccc(=O)oc8)CC[C@]7(O)C6CC[C@@H]5C4)CC3)cc2)C(C)C)ccc1NC(=O)[C@@H]1N[C@@H](CC(C)(C)C)[C@](C#N)(c2ccc(Cl)cc2F)[C@H]1c1cccc(Cl)c1F (some centres unmarked) [Compound I-11] | between several to hundreds of nanomoles | 27 nM | 10 nM | 68 nM | – | – | –
COc1cc(C(=O)NCCOCCOCCOCCOCCC(=O)N[C@@H](CCSC)C(=O)N[C@@H](CCCNC(N)=O)C(=O)Nc2ccc(COC(=O)O[C@@H](C(=O)O[C@H]3C[C@@]4(O)[C@@H](OC(=O)c5ccccc5)C5[C@](C)(C(=O)[C@H](OC(C)=O)C(=C3C)C4(C)C)[C@@H](O)C[C@H]3OC[C@@]53OC(C)=O)[C@@H](NC(=O)c3ccccc3)c3ccccc3)cc2)ccc1NC(=O)[C@@H]1N[C@@H](CC(C)(C)C)[C@](C#N)(c2ccc(Cl)cc2F)[C@H]1c1cccc(Cl)c1F (some centres unmarked) [Compound I-12] | – | – | – | – | 5260 nM | 626 nM | 542 nM
COc1cc(C(=O)NCCOCCOCCOCCOCCC(=O)N[C@@H](CCSC)C(=O)N[C@@H](CCCNC(N)=O)C(=O)Nc2ccc(COC(=O)N3CCN(C(=O)O[C@H]4CC[C@@]5(C)[C@H](CC[C@@H]6[C@@H]5[C@H](O)C(=O)[C@]5(C)[C@@H](c7ccc(=O)oc7)CC[C@]65O)C4)CC3)cc2)ccc1NC(=O)[C@@H]1N[C@@H](CC(C)(C)C)[C@](C#N)(c2ccc(Cl)cc2F)[C@H]1c1cccc(Cl)c1F [Compound I-13] | between several to hundreds of nanomoles | 14 nM | 14 nM | 24 nM | – | – | –
COc1cc(C(=O)NCCOCCOCCOCCOCCC(=O)N[C@@H](CCSC)C(=O)N[C@@H](CCCNC(N)=O)C(=O)Nc2ccc(COC(=O)N3CCC(NC(=O)O[C@H]4CC[C@]5(C)C6CC[C@]7(C)[C@@H](c8ccc(=O)oc8)CC[C@]7(O)C6CC[C@@H]5C4)CC3)cc2)ccc1NC(=O)[C@@H]1N[C@@H](CC(C)(C)C)[C@](C#N)(c2ccc(Cl)cc2F)[C@H]1c1cccc(Cl)c1F (some centres unmarked) [Compound I-14] | between several to hundreds of nanomoles | 483 nM | 249 nM | 670 nM | – | – | –
